In patent US20080109040A1, “METHOD OF TREATING ARRHYTHMIAS” (priority 2002, published 2008):
Like-named read-outs stand apart in the source and are kept apart here. Marks after values point to notes of the source that are not given here.

How the values were obtained:
[1] = tested on: guinea pig ventricular myocytes; experiment: Action potential duration, EADs and triggered activity in guinea pig ventricular myocytes
Procedure: Single ventricular myocytes were isolated from the hearts of adult, male guinea pigs (Harlan). In brief, the hearts were perfused with warm (35° C.) and oxygenated solutions in the following order: 1) Tyrode solution containing (in mmol/L) 140 NaCl, 4.6 KCl, 1.8 CaCl2, 1.1 MgSO4, 10 glucose and 5 HEPES, pH 7.4, for 5 minutes; 2) Ca^2+-free solution containing (in mmol/L) 100 NaCl, 30 KCl, 2 MgSO4, 10 glucose, 5 HEPES, 20 taurine, and 5 pyruvate, pH 7.4, for 5 minutes; and 3) Ca^2+-free solution containing sollagenase (120 units/ml) and albumin (2 mg/ml), for 20 minutes. At the end of the perfusion, the ventricles were removed, minced, and gently shaken for 10 minutes in solution #3. Isolated cells were harvested from the cell suspension.
Myocytes were placed into a recording chamber and superfused with Tyrode solution at 35° C. Drugs were applied via the superfusate. Action potentials were measured using glass microelectrodes filled with a solution containing (in mmol/L) 120 K-aspartate, 20 KCl, 1 MgCl2, 4 Na2ATP, 0.1 Na3GTP, 10 glucose, 1 EGTA and 10 HEPES (pH 7.2). Microelectrode resistance was 1-3 MΩ. An Axopatch-200 amplifier, a DigiData-1200A interface and pCLAMP6 software were used to perform electrophysiological measurements. Action potentials were induced by 5-ms depolarizing pulses applied at various frequencies as indicated. The duration of action potential was measured at 50% (APD50) and 90% (APD90) repolarization.
1) Ventricular myocytes were electrically stimulated at a frequency of 0.5, 1 or 2 Hz. Each myocyte was treated with 3, 10 and 30 μmol/L ranolazine. The effect of ranolazine on action potential duration at each pacing frequency was determined from 4 myocytes.
2) Action potentials were elicited at a frequency of 0.25 Hz, and the effect of ranolazine (10 μmol/L) on action potential duration was examined in the presence of 5 μmol/L quinidine. Experiments were performed on 4 myocytes.
Following the procedures and protocols of Example 21, guinea pig ventricular myocytes were electrically stimulated in the presence of ranolazine either alone or in the presence of ATX II [a sea anemone toxin known to mimic LQT3 syndrome by slowing Na^+-channel inactivation from the open state and thereby increasing the peak and late Na^+ current (INa) of cardiomyocytes]. ATXII is known to induce early afterdepolarizations (EADs) and triggered activity and ventricular tachycardia.
Action potentials were recorded using the whole-cell patch-electrode technique. Ventricular monophasic action potentials and electrograms were recorded from isolated hearts.
The ventricular APD of guinea pigs isolated myocytes and hearts was measured, respectively, at 50% (APD50) and 90% (MAPD90) repolarization.

[2] = tested on: guinea pig isolated heart; experiment: K-H buffer perfused guinea pig isolated heart: MAP duration, EADs and VT
Text: To study the effect of ranolazine on ATXII induced MAP (monophasic action potential) duration prolongation, EADs and ventricular tachyarrhythmia (VT), the K—H buffer perfused guinea pig isolated heart model was used.
Multiple EADs and sustained depolarizations were frequently observed.

anesthetized dog = experiment: QT prolongation and arrhythmia induction in anesthetized dog with AV block and phenylephrine challenge; conditions: for Arrhythmia occurrence: individual dogs; for Mean ERP LV / Mean ERP RY: sot 8 + 4
Procedure: Dogs were pretreated with Atravet (0.07 mg/kg sc) and then 15 minutes later anesthetized with ketamine (5.3 mg/kg iv) and valium (0.25 mg/kg iv) followed by isoflurane (1-2%), intubated and subjected to mechanical ventilation. They were then subjected to AV block with radiofrequency ablation. A median sternotomy was performed and catheters were inserted into a femoral artery for blood pressure (BP) recording and into both femoral veins for infusion of test drugs. Bipolar electrodes were inserted into both ventricles for programmed stimulation determination of refractory periods (extrastimulus technique), as well as for evaluation of QT interval and QRS duration at various controlled basic cycle lengths (BCLs). TdP was induced by challenges of phenylephrine, which were given as bolus intravenous doses of 10, 20, 30, 40 and 50 μg/kg. After each dose, the ECG was monitored continuously to detect arrhythmias. […] Test drug effects were evaluated as per protocols below.
Data are presented as the mean ±S.E.M. Statistical comparisons were made with Student's t test. A 2-tailed probability<0.05 was taken to indicate statistical significance. In data tables, * denotes P<0.05, **P<0.01.
Group 2 (6 dogs): Five dogs received ranolazine as a 0.5 mg/kg iv load followed by a first, a second and a third continuous iv infusion of 1.0, 3.0 and 15 mg/kg/hr, respectively. One dog received ranolazine as a 1.5 mg/kg iv load followed by infusions of 15 and 30 mg/kg/hr. […] The phenylephrine challenges were then given, with all doses given at each drug infusion rate, and any arrhythmias monitor.

Cc1cccc(CCN2CCC(C(=O)c3ccc(NS(C)(=O)=O)cc3)CC2)n1 [E-4031, reference compound]
Increase of APD50 ([1]; E-4031 1 μmol/L, absence of ATX-II): 11±2%
Increase of APD50 ([1]; E-4031 1 μmol/L, presence of ATX-II): 104±41%
Increase of MAPD90 ([2]; E-4031 1 μmol/L alone): 30.1±0.1%
Increase of MAPD90 ([2]; E-4031 applied with ATX-II): 127.1±0.4%

CCS(=O)(=O)N(C)[C@H]1c2cc(C#N)ccc2OC(C)(C)[C@@H]1O [293B, reference compound]
Induction of EADs [1]: induced EADs in the presence, but not in the absence, of ATX-II
Increase of APD50 ([1]; 293B 30 μmol/L, absence of ATX-II): 40±7%
Increase of APD50 ([1]; 293B 30 μmol/L, presence of ATX-II): 202±59%
Increase of MAPD90 ([2]; 293B 1 μmol/L alone): 6.3±0.2%
Increase of MAPD90 ([2]; 293B applied with ATX-II): 31.6±0.1%

ATXII: a sea anemone toxin known to mimic LQT3 syndrome by slowing Na+-channel inactivation from the open state [reference compound]
Increase of APD50 ([1]; ATX-II 3 nmol/L alone): 6±2%
Induction of EADs ([1]; ATX-II 10-20 nmol/L): induced EADs in all cells
APD50 in the presence of ATX-II ([1]; ATX-II 10-20 nmol/L, n=24): 1,148±49 ms
Induction of EADs ([1]; ATXII 10-40 nmol/L): induced EADs in all cells
APD50 in the presence of ATXII ([1]; ATXII 10-40 nmol/L, n=20): 1,154±61 ms
Increase of MAPD90 ([2]; ATX-II 7 nmol/L alone): 32±0.1%
Isolated hearts with EADs and (polymorphic) VT ([2]; ATXII 10-20 nM): 10/14
Prolongation of MAPD90 ([2]; ATXII 10-20 nM, 4 hearts without rapid ventricular arrhythmia): 6%
Isolated hearts with EADs and (polymorphic) VT ([2]; ATXII 10-20 nM, listed as ATX-II): 10 of 14

CC(C)NCC(O)c1ccc(NS(C)(=O)=O)cc1 (racemic) [sotalol, reference compound]
Arrhythmia occurrence (anesthetized dog; Sot 8 + 4 plus phenylephrine 10 μg/kg, — = none): death
Arrhythmia occurrence (anesthetized dog; Sot 8 + 4 plus phenylephrine 30 μg/kg): death
Arrhythmia occurrence (anesthetized dog; Sot 8 + 4 plus phenylephrine 40 μg/kg): tdp VF death
Arrhythmia occurrence (anesthetized dog; Sot 8 + 4 plus phenylephrine 50 μg/kg): death
Effect on QRS duration (anesthetized dog; dog, in vivo): did not affect
Mean ERP LV (anesthetized dog; BCL 300): 201.25 ± 18.75 ms
Mean ERP RY (anesthetized dog; BCL 300): 181.33 ± 8.21** ms
Mean ERP LV (anesthetized dog; BCL 400): 226.25 ± 21.25 ms
Mean ERP RY (anesthetized dog; BCL 400): 195.67 ± 7.53** ms
Mean ERP LV (anesthetized dog; BCL 600): 262.50 ± 27.5* ms
Mean ERP RY (anesthetized dog; BCL 600): 223.50 ± 9.07** ms
Mean ERP LV (anesthetized dog; BCL 1000): 286.25 ± 16.25* ms
Mean ERP RY (anesthetized dog; BCL 1000): 255.50 ± 9.56** ms
Death from torsade de pointes degenerating to ventricular fibrillation (anesthetized dog; sotalol infusion and a phenylephrine bolus): All the dogs eventually died

C=C[C@H]1C[N@@]2CC[C@H]1C[C@@H]2[C@@H](O)c1ccnc2ccc(OC)cc12 [quinidine, reference compound]
Effect on duration of action potential ([1]; quinidine 5 μmol/L, 0.25 Hz): increased the duration of action potential
